Values joined by “and” are separate entries in the source; they are usually repeats but may differ in a detail not shown here. Identical values can stand only once.
System: CEM cells
Assay: Targeted LC-MS/MS-MRM of de novo and salvage dCTP biosynthesis (nucleotide pools and newly replicated DNA)
Assay type: cell-based, human
Set-up: key to Substrate utilization Glucose / Substrate utilization dC: ↓: partial decrease/inhibition; ↓↓↓: nearly complete inhibition; ↑: increase; ⟷: no change
Method: Cells were transferred into RPMI-1640 without glucose and supplemented with 10% dialyzed FBS (Gibco) containing the following labeled substrates: precursors for de novo [U-^13C6]glucose (Sigma-Aldrich, 389374) at 11 mM; precursors for purine salvage [U-^13C10,^15N5]dA (Cambridge Isotopes, CIL 3896), [^15N5]dA (Cambridge Isotopes, NLM-3895) and [^15N5]dG (Cambridge Isotopes, NLM-3899) at 5 µM or as indicated; and precursors for pyrimidine salvage: [U-^13C9,^15N3]dC (Silantes, 124603602) and [U-^13C10,^15N2]dT (Cambridge Isotopes, CNLM-3902) at 5 µM and [^15N2]orotate (Cambridge Isotopes, NLM-1048) at indicated concentrations. The cells were incubated for 12 h or as indicated before sample collection and processing.
The rates of dCTP incorporation into the DNA were determined using linear regression with procedure GLM in SAS (v. 9.4). DNA % label was transformed using a shifted log addition of 1 due to the presence of zeros in the data set. Rates were calculated using the slope of the regression line for the log transformed data and are presented in the table with the associated standard errors, along with the ratio between the rate of incorporation into DNA by the de novo and salvage pathways (Table 1).
Cell cycle synchronization. Cells were treated with a CDK4/6 inhibitor, Pablociclib or PD-0332991 (Selleckchem, S1116) for 18 h to synchronize them in the G1 phase. Subsequently, cells were washed twice with PBS containing 2% FBS (Omega Scientific) and released into fresh media. […]
Clinical Microarray Core on an Illumina HiSeq3000 using the SeqCap EZ Exome Enrichment Kit v3.0 (Roche).
Reads were mapped to UCSC hg19 (bwa-mem), deduplicaed (PicardTools), and subjected to base quality score recalibration and realignment around known indels according to the Broad Institute Genome Analysis Toolkit (GATK) Best Practices v3.0. Variants in genes associated with nucleotide biosynthesis were identified using the GATK HaplotypeCaller, and annotated with Oncotator (http://portals.broadinstitute.org/oncotator/). dNTP sample processing. 0.5 – 1 x 10^6 cells were collected into 1.5 mL microcentrifuge tubes and centrifuged (450 x g, 4 min, 4 °C). The supernatant was carefully aspirated and the cells were washed twice with 1 mL of cold PBS, followed each time by centrifugation (450 x g, 4 min 4 °C). The PBS were aspirated.
Thereafter, the pellets were treated with 10 µL of 10% trifluoroacetic acid with internal standards (1 µM […]
s, and incubated on ice for 10 min. 40 µL of 500 mM ammonium acetate, pH = 9.3, with the same internal standard (1 µM [15N3]dCMP and [15N3]dCTP) was then added and the samples were vigorously vortexed again for 30 s. The samples were centrifuged (14,000 x g, 10 min, 4 °C) to remove cell debris. The supernatants (~ 40 µL) were transferred into HPLC injector vials. Stock solutions (10 mM) of rCTP, rCDP, dCMP, dCDP, and dCTP (Sigma Aldrich) were prepared individually in water, and stored at –20 °C before use to generate calibration standards. Calibration standards were prepared and mixed together in water with internal standards (1 µM [15N3]dCMP and [15N3]dCTP) to make working stock concentrations in 100 nM – 100 µM range.
Calibration standards were diluted 10-fold into the same nucleotide extraction solution of 10% TFA/500 mM ammonium acetate (1:4, v/v) with internal standards (1 µM [15N3]dCMP and [15N3]dCTP) to give a final concentration in 10 nM – 10 µM. Nucleotide and calibration samples were processed together to minimize […]
DNA sample processing. Genomic DNA from 0.5 – 1 x 10^4 cells was extracted using the Quick-gDNA MiniPrep kit (Zymo Research, D3021) and hydrolyzed to nucleosides using the DNA Degradase Plus kit (Zymo Research, E2021), following manufacturer-supplied instructions. In the final step of DNA extraction, 50 µL of […]
water was used to elute the DNA into 1.5 mL microcentrifuge tubes. A nuclease solution (5 µL; 10X buffer/DNA Degradase Plus™/water, 2.5/1/1.5, v/v/v) was added to 20 µL of the eluted genomic DNA in an HPLC injector […]
vial. […]

[1] = CEM 12 h, 1 uM VE-822, 1 uM DI-82, 500 nM 3-AP, #1-#3
[2] = CEM after release from G1 arrest

Question: With `CNCc1ccc(-c2cc(-c3nc(-c4ccc(S(=O)(=O)C(C)C)cc4)cnc3N)on2)cc1` [VE-822] as the molecule, how does the “reduction in overall DNA labeling compared to untreated cells” value (12 h time point after release from G1 arrest) read?
Answer: Its value is 30%.

Question: And the “% sum abundance, de novo DNA-C, mass increase in nucleobase +0, in deoxyribose +3” value [1]?
Answer: Its value is 0.14% and 0.15% and 0.16%.

Question: And the “% sum abundance, de novo DNA-C, mass increase in nucleobase +0, in deoxyribose +4” value [1]?
Answer: Its value is 0.43% and 0.45% and 0.46%.

Question: What about the “% sum abundance, de novo DNA-C, mass increase in nucleobase +0, in deoxyribose +5” value [1] of the same molecule?
Answer: Its value is 7.38% and 7.69% and 7.03%.

Question: What about the “% sum abundance, de novo DNA-C, mass increase in nucleobase +1, in deoxyribose +3” value [1] of the same molecule?
Answer: The value was 0.00%.

Question: And the “% sum abundance, de novo DNA-C, mass increase in nucleobase +1, in deoxyribose +4” value [1]?
Answer: Its value is 0.06% and 0.0569% and 0.066%.

Question: And the “% sum abundance, de novo DNA-C, mass increase in nucleobase +1, in deoxyribose +5” value [1]?
Answer: Its value is 0.95% and 0.96% and 0.91%.

Question: And the “% sum abundance, de novo DNA-C, mass increase in nucleobase +2, in deoxyribose +4” value [1]?
Answer: Its value is 0.0654% and 0.0348% and 0.0476%.

Question: What about the “% sum abundance, de novo DNA-C, mass increase in nucleobase +2, in deoxyribose +5” value [1] of the same molecule?
Answer: The value was 0.64% and 0.67% and 0.62%.

Question: What about the “% sum abundance, de novo DNA-C, mass increase in nucleobase +3, in deoxyribose +4” value [1] of the same molecule?
Answer: Its value is 0.00%.

Question: And the “% sum abundance, de novo DNA-C, mass increase in nucleobase +3, in deoxyribose +5” value [1]?
Answer: The value was 0.16% and 0.17% and 0.14%.

Question: And the “% sum abundance, de novo DNA-C, mass increase in nucleobase +4, in deoxyribose +4” value [1]?
Answer: The value was 0.00%.

Question: And the “% sum abundance, de novo DNA-C, mass increase in nucleobase +4, in deoxyribose +5” value [1]?
Answer: Its value is 0.00%.

Question: And the “% sum abundance, salvage DNA-C, mass increase in nucleobase +5, in deoxyribose +0” value [1]?
Answer: Its value is 0.00%.

Question: And the “% sum abundance, salvage DNA-C, mass increase in nucleobase +5, in deoxyribose +4” value [1]?
Answer: The value was 0.00%.

Question: What about the “% sum abundance, salvage DNA-C, mass increase in nucleobase +5, in deoxyribose +5” value [1] of the same molecule?
Answer: Its value is 0.00%.

Question: And the “% sum abundance, salvage DNA-C, mass increase in nucleobase +6, in deoxyribose +0” value [1]?
Answer: The value was 0.00%.

Question: And the “% sum abundance, salvage DNA-C, mass increase in nucleobase +6, in deoxyribose +4” value [1]?
Answer: The value was 0.00%.

Question: What about the “% sum abundance, salvage DNA-C, mass increase in nucleobase +6, in deoxyribose +5” value [1] of the same molecule?
Answer: Its value is 0.09%.

Question: And the “% sum abundance, salvage DNA-C, mass increase in nucleobase +7, in deoxyribose +0” value [1]?
Answer: Its value is 0.00%.

Question: And the “% sum abundance, salvage DNA-C, mass increase in nucleobase +7, in deoxyribose +4” value [1]?
Answer: Its value is 0.06% and 0.07%.

Question: And the “% sum abundance, salvage DNA-C, mass increase in nucleobase +7, in deoxyribose +5” value [1]?
Answer: The value was 1.08% and 1.19% and 1.11%.

Question: And the “% sum abundance, unlabeled DNA-C, mass increase in nucleobase +0, in deoxyribose +0” value [1]?
Answer: The value was 78.84% and 78.52% and 79.31%.

Question: And the “% sum abundance, unlabeled DNA-C, mass increase in nucleobase +0, in deoxyribose +1” value [1]?
Answer: The value was 4.53% and 4.48% and 4.46%.

Question: And the “% sum abundance, unlabeled DNA-C, mass increase in nucleobase +0, in deoxyribose +2” value [1]?
Answer: Its value is 0.68% and 0.72%.

Question: And the “% sum abundance, unlabeled DNA-C, mass increase in nucleobase +1, in deoxyribose +0” value [1]?
Answer: Its value is 4.47% and 4.26% and 4.33%.

Question: And the “% sum abundance, unlabeled DNA-C, mass increase in nucleobase +1, in deoxyribose +1” value [1]?
Answer: The value was 0.21% and 0.22% and 0.24%.

Question: What about the “% sum abundance, unlabeled DNA-C, mass increase in nucleobase +1, in deoxyribose +2” value [1] of the same molecule?
Answer: The value was 0.00%.

Question: What about the “% sum abundance, unlabeled DNA-C, mass increase in nucleobase +2, in deoxyribose +0” value [1] of the same molecule?
Answer: Its value is 0.24% and 0.27% and 0.28%.

Question: What about the “% sum abundance, unlabeled DNA-C, mass increase in nucleobase +2, in deoxyribose +1” value [1] of the same molecule?
Answer: Its value is 0.00%.

Question: What about the “% sum abundance, unlabeled DNA-C, mass increase in nucleobase +2, in deoxyribose +2” value [1] of the same molecule?
Answer: The value was 0.00%.

Question: And the “% sum abundance, unlabeled DNA-C, mass increase in nucleobase +3, in deoxyribose +0” value [1]?
Answer: Its value is 0.00%.

Question: What about the “% sum abundance, unlabeled DNA-C, mass increase in nucleobase +3, in deoxyribose +1” value [1] of the same molecule?
Answer: Its value is 0.00%.

Question: And the “% sum abundance, unlabeled DNA-C, mass increase in nucleobase +4, in deoxyribose +0” value [1]?
Answer: The value was 0.00%.

Question: And the “De novo: rate of dCTP incorporation into newly replicated DNA (slope ± standard error of regression line)” value [2]?
Answer: Its value is 0.17 ± 0.01 arbitrary unit.

Question: What about the “Ratio (salvage/de novo)” value [2] of the same molecule?
Answer: The value was 0.85.

Question: What about the “Salvage: rate of dCTP incorporation into newly replicated DNA (slope ± standard error of regression line)” value [2] of the same molecule?
Answer: The value was 0.14 ± 0.01 arbitrary unit.

Question: What about the “free dCTP levels or their biosynthetic origins” value (after release from G1 arrest) of the same molecule?
Answer: Its value is “did not alter”.

Question: What about the “decrease of [13C6]glucose labeling of the rCDP pool” value (asynchronous CEM, 12 h) of the same molecule?
Answer: Its value is 40%.

Question: And the “reduction of dCK activity (contribution of labeled [13C9,15N3]dC to intracellular dCMP)” value (asynchronous CEM, 12 h)?
Answer: Its value is ~ 33%.

Question: What about the “Substrate utilization Glucose” value (summary Fig. 2g, CEM cells) of the same molecule?
Answer: Its value is “↓”.

Question: And the “Substrate utilization dC” value (summary Fig. 2g, CEM cells)?
Answer: Its value is “↓”.

From paper PMC5556071, “ATR inhibition facilitates targeting of leukemia dependence on convergent nucleotide biosynthetic pathways” (Nature Communications, 2017)
